Assay results taken from US20240352036A1, “CRYSTALLINE FORMS OF RAS INHIBITORS, COMPOSITIONS CONTAINING THE SAME, AND METHODS OF USE THEREOF” (Revolution Medicines, Inc., priority 2023, published 2024).

Key:
Type in all cases: physicochemical
[1] = variable humidity XRPD of crystalline Form 1; details: 25° C., XRPD at each RH
Description: In another method, crystalline Form 1 was subjected to variable humidity XRPD experiments. In this experiment, two relative humidity (RH) cycles were applied at 25° C. XRPD analysis was carried out in each specific relative humidity. Cycle 1: 40% RH (initial)-40% RH (3 h)-60% RH (3 h)-80% RH (3 h)-95% RH (3 h)-80% RH (3 h)-60% RH (3 h)-40% RH (3 h)-20% RH (3 h) 0% RH (3 h); Cycle 2: 20% RH (3 h)-40% RH (3 h).

[2] = storage under ambient conditions followed by XRPD; details: two weeks of storage under ambient conditions (room temperature)
[3] = XRPD monitoring over time of pure Form 1 from a saturated diethyl ether slurry
Description: The formation of Form 2 is indicated by the presence of an intense peak at 4.8° 2θ (FIG. 2), which is absent in pure samples of Form 1 (FIG. 1 and FIG. 3). To study the formation of Form 2, a saturated slurry of Compound A was prepared in diethyl ether, which produced pure Form 1 at time=0 hr, and this pure sample was monitored over time using XRPD analysis. A shoulder peak at 4.8° 2θ was detected after approx. 2 hours and increased in intensity compared to the original Form 1 peaks after 4 and 17 days (FIG. 4).

CCn1c(-c2cccnc2[C@H](C)OC)c2c3cc(ccc31)N1CCO[C@@H](C[C@H](NC(=O)[C@H](C(C)C)N(C)C(=O)C3(F)CCN(C(=O)C#CC(C)(C)N(C)C)CC3)C(=O)N3CCC[C@H](N3)C(=O)OCC(C)(C)C2)C1 (atropisomer, axis not shown) [Form 2]
solid form conversion at relative humidity lower than 80% ([1]; two RH cycles, RH lower than 80%): converted back to Form 1

CCn1c(-c2cccnc2[C@H](C)OC)c2c3cc(ccc31)N1CCO[C@@H](C[C@H](NC(=O)[C@H](C(C)C)N(C)C(=O)C3(F)CCN(C(=O)C#CC(C)(C)N(C)C)CC3)C(=O)N3CCC[C@H](N3)C(=O)OCC(C)(C)C2)C1 (atropisomer, axis not shown) [Form 4]
solid form stability on storage (XRPD) [2]: converted to a disordered material

CCn1c(-c2cccnc2[C@H](C)OC)c2c3cc(ccc31)N1CCO[C@@H](C[C@H](NC(=O)[C@H](C(C)C)N(C)C(=O)C3(F)CCN(C(=O)C#CC(C)(C)N(C)C)CC3)C(=O)N3CCC[C@H](N3)C(=O)OCC(C)(C)C2)C1 (atropisomer, axis not shown) [Form 1]
time until the Form 2 shoulder peak at 4.8° 2θ was detected ([3]; pure Form 1 at time=0 hr from saturated diethyl ether slurry, peak increased in intensity after 4 and 17 days): approx. 2 hours | solid form stability over time (XRPD) ([3]; pure Form 1 monitored up to 17 days): may produce a mixture of Forms 1 and 2 over time | solid form conversion at relative humidity higher than 80% RH ([1]; two RH cycles 0-95% RH, 3 h per step, RH higher than 80%): converted or partially converted to Form 2
